# Source: patent US5041567A, “Antibacterial monic acid derivatives” (Beecham Group plc, priority 1982, dated 1991)
# Read-outs that look alike come from different tables or passages of the source.
# Tests used:
# M. pneumoniae ATCC 15492 = assay: MIC against mycoplasma in vitro; format: cell-based; settings: M. pneumoniae ATCC 15492, 6 days, 37° C.
# Strep. agalactiae SPA1 = assay: MIC against veterinary bacteria in vitro
# Method: (§1) The activity of the compounds of the Examples against various veterinarily important bacteria, was assayed in vitro using two-fold serial dilutions in Diagnostic Sensitivity Test Agar inoculated with 10^4 organisms.
# S. dublin S7 = assay: MIC against veterinary bacteria in vitro
# Method: as §1
# [1] = test system: M. suipneumoniae NCTC 10110; assay: MIC against mycoplasma in vitro; format: cell-based
# E. coli NCTC 10418 [2] = assay: MIC against veterinary bacteria in vitro
# Method: as §1
# E. coli ESS = assay: MIC against human bacteria in vitro; format: cell-based; settings: E. coli ESS, 5% chocolated horse blood agar, 18 hours
# [3] = test system: Staph. aureus 152 (pen. sens); assay: MIC against veterinary bacteria in vitro
# Method: as §1
# Staph. aureus Oxford [4] = assay: MIC against veterinary bacteria in vitro
# Method: as §1
# Strep. uberis SPU1 = assay: MIC against veterinary bacteria in vitro
# Method: as §1
# [5] = test system: Pasteurella multocida 1633; assay: MIC against human bacteria in vitro; format: cell-based; settings: Pasteurella multocida 1633, 5% chocolated horse blood agar, 18 hours
# [6] = test system: Strep. pyogenes R80/421-A; assay: MIC against human bacteria in vitro; format: cell-based; settings: Strep. pyogenes R80/421-A, 5% chocolated horse blood agar, 18 hours
# E. coli NCTC 10418 [7] = assay: MIC against human bacteria in vitro; format: cell-based; settings: E. coli NCTC 10418, agar with 5% chocolated horse blood, 18 hours, 37° C.
# S. typhimurium S18 = assay: MIC against veterinary bacteria in vitro
# Method: as §1
# M. suipneumoniae JF 435 = assay: MIC against mycoplasma in vitro; format: cell-based
# Staph. aureus Oxford [8] = assay: MIC against human bacteria in vitro; format: cell-based; settings: Staph. aureus Oxford, 5% chocolated horse blood agar, 18 hours
# Strep. spp. 64/848-C = assay: MIC against human bacteria in vitro; format: cell-based; settings: Strep. spp. 64/848-C, 5% chocolated horse blood agar, 18 hours
# M. suipneumoniae Str. 11 = assay: MIC against mycoplasma in vitro; format: cell-based
# M. gallisepticum S6 = assay: MIC against mycoplasma in vitro; format: cell-based; settings: M. gallisepticum S6, 6 days, 37° C.
# E. coli E1 = assay: MIC against veterinary bacteria in vitro
# Method: as §1
# Bacillus subtilis 6633 = assay: MIC against human bacteria in vitro; format: cell-based; settings: Bacillus subtilis 6633, 5% chocolated horse blood agar, 18 hours
# M. dispar NCTC 10125 = assay: MIC against mycoplasma in vitro; format: cell-based
# [9] = Mycoplasmoides pneumoniae, ATCC15492, 144 h, read-out: MIC
# [10] = Streptococcus agalactiae, SPA1, 18 h
# [11] = Mesomycoplasma hyopneumoniae, NCTC10110, 144 h, M. suipneumoniae NCTC 10110, 6 days, 37° C., read-out: MIC
# [12] = Escherichia coli, NCTC10418, 18 h
# [13] = Escherichia coli, read-out: MIC
# [14] = Streptococcus uberis, SPU1, 18 h
# [15] = Streptococcus pyogenes, read-out: MIC
# [16] = Escherichia coli, NCTC10418, read-out: MIC
# [17] = Salmonella enterica, TYPHIMURIUM, 18 h
# [18] = Mesomycoplasma hyopneumoniae, JF435, 144 h, M. suipneumoniae JF 435, 6 days, 37° C., read-out: MIC
# [19] = Staphylococcus aureus, read-out: MIC
# [20] = Mesomycoplasma hyopneumoniae, STR.11, 144 h
# [21] = Mycoplasmoides gallisepticum, 144 h, read-out: MIC
# [22] = Mesomycoplasma hyopneumoniae, NCTC10110, 144 h
# [23] = Mesomycoplasma hyopneumoniae, JF435, 144 h
# [24] = 144 h, M. dispar NCTC 10125, 6 days, 37° C., read-out: MIC
smiles,measurement,setting,value
"C/C(=C\c1ncc(-c2ccc(C(=O)O)cc2)o1)C[C@@H]1OC[C@H](C[C@@H]2O[C@H]2[C@@H](C)[C@H](C)O)[C@@H](O)[C@H]1O [Example 17, Sodium 4-[2-(1-normon-2-yl)-5-oxazolyl] benzoate A]",MIC,M. pneumoniae ATCC 15492; [9],> 10 µg/mL
same,MIC,Strep. agalactiae SPA1; [10],40 µg/mL
same,MIC,"S. dublin S7; Salmonella enterica, S7, 18 h",> 80 µg/mL
same,MIC,[1]; [11],> 10 µg/mL
same,MIC,E. coli NCTC 10418 [2]; [12],> 80 µg/mL
same,MIC,E. coli ESS; [13],16 µg/mL
same,MIC,"[3]; Staphylococcus aureus, 18 h",10 µg/mL
same,MIC,"Staph. aureus Oxford [4]; Staphylococcus aureus, 18 h",20 µg/mL
same,MIC,Strep. uberis SPU1; [14],1.25 µg/mL
same,MIC,[5]; read-out: MIC,8 µg/mL
same,MIC,[6]; [15],4 µg/mL
same,MIC,E. coli NCTC 10418 [7]; [16],> 64 µg/mL
same,MIC,S. typhimurium S18; [17],> 80 µg/mL
same,MIC,M. suipneumoniae JF 435; [18],5 µg/mL
same,MIC,Staph. aureus Oxford [8]; [19],32 µg/mL
same,MIC,Strep. spp. 64/848-C; read-out: MIC,32 µg/mL
same,MIC,M. suipneumoniae Str. 11; [20],2.5 µg/mL
same,MIC,M. gallisepticum S6; [21],> 10 µg/mL
same,MIC,"E. coli E1; Escherichia coli, E1, 18 h",> 80 µg/mL
same,MIC,Bacillus subtilis 6633; read-out: MIC,32 µg/mL
same,MIC,M. dispar NCTC 10125; 144 h,2.5 µg/mL
"CC(=Cc1cc(C)no1)CC1OCC(CC2OC2C(C)C(C)O)C(O)C1O (centres unmarked) [Example 30, 3-Methyl-5-(1-normon-2-yl) isoxazole A]",MIC,M. pneumoniae ATCC 15492,10 µg/mL
same,MIC,"Strep. agalactiae SPA1; Strep. agalactiae SPA1, Diagnostic Sensitivity Test Agar, 18 hours",40 µg/mL
same,MIC,"S. dublin S7; S. dublin S7, Diagnostic Sensitivity Test Agar, 18 hours",> 80 µg/mL
same,MIC,"[1]; M. suipneumoniae NCTC 10110, 6 days, 37° C.",2.5 µg/mL
same,MIC,"E. coli NCTC 10418 [2]; E. coli NCTC 10418, Diagnostic Sensitivity Test Agar, 18 hours, 37° C.",> 80 µg/mL
same,MIC,E. coli ESS,8.0 µg/mL
same,MIC,"[3]; Staph. aureus 152 (pen. sens), Diagnostic Sensitivity Test Agar, 18 hours",2.5 µg/mL
same,MIC,"Staph. aureus Oxford [4]; Staph. aureus Oxford, Diagnostic Sensitivity Test Agar, 18 hours",2.5 µg/mL
same,MIC,"Strep. uberis SPU1; Strep. uberis SPU1, Diagnostic Sensitivity Test Agar, 18 hours",10 µg/mL
same,MIC,[5],8.0 µg/mL
same,MIC,[6],32 µg/mL
same,MIC,E. coli NCTC 10418 [7],> 128 µg/mL
same,MIC,"S. typhimurium S18; S. typhimurium S18, Diagnostic Sensitivity Test Agar, 18 hours",> 80 µg/mL
same,MIC,"M. suipneumoniae JF 435; M. suipneumoniae JF 435, 6 days, 37° C.",5.0 µg/mL
same,MIC,Staph. aureus Oxford [8],8.0 µg/mL
same,MIC,Strep. spp. 64/848-C,> 128 µg/mL
same,MIC,"M. suipneumoniae Str. 11; M. suipneumoniae Str. 11, 6 days, 37° C.",2.5 µg/mL
same,MIC,M. gallisepticum S6,> 10 µg/mL
same,MIC,"E. coli E1; E. coli E1, Diagnostic Sensitivity Test Agar, 18 hours, 37° C.",> 80 µg/mL
same,MIC,Bacillus subtilis 6633,8.0 µg/mL
same,MIC,"M. dispar NCTC 10125; M. dispar NCTC 10125, 6 days, 37° C.",0.25 µg/mL
"C/C(=C\c1cc(-c2ccccc2)no1)C[C@@H]1OC[C@H](C[C@@H]2O[C@H]2[C@@H](C)[C@H](C)O)[C@@H](O)[C@H]1O [Example 31, 5-(1-Normon-2-yl)-3-phenylisoxazole A]",MIC,M. pneumoniae ATCC 15492; [9],> 10 µg/mL
same,MIC,"S. dublin S7; Salmonella enterica, S7, 18 h",> 80 µg/mL
same,MIC,[1]; [11],10 µg/mL
same,MIC,E. coli NCTC 10418 [2]; [12],> 80 µg/mL
same,MIC,E. coli ESS; [13],64 µg/mL
same,MIC,"[3]; Staphylococcus aureus, 18 h",10 µg/mL
same,MIC,"Staph. aureus Oxford [4]; Staphylococcus aureus, 18 h",20 µg/mL
same,MIC,Strep. uberis SPU1; [14],40 µg/mL
same,MIC,[5]; read-out: MIC,64 µg/mL
same,MIC,[6]; [15],128 µg/mL
same,MIC,E. coli NCTC 10418 [7]; [16],> 128 µg/mL
same,MIC,S. typhimurium S18; [17],> 80 µg/mL
same,MIC,M. suipneumoniae JF 435; [18],10 µg/mL
same,MIC,Staph. aureus Oxford [8]; [19],64 µg/mL
same,MIC,Strep. spp. 64/848-C; read-out: MIC,> 128 µg/mL
same,MIC,"M. suipneumoniae Str. 11; Mesomycoplasma hyopneumoniae, 144 h, M. suipneumoniae Str. 11, 6 days, 37° C., read-out: MIC",5 µg/mL
same,MIC,M. gallisepticum S6; [21],> 10 µg/mL
same,MIC,"E. coli E1; Escherichia coli, E1, 18 h",> 80 µg/mL
same,MIC,Bacillus subtilis 6633; read-out: MIC,64 µg/mL
same,MIC,M. dispar NCTC 10125; 144 h,2.5 µg/mL
"C/C(=C\c1cc(C)on1)C[C@@H]1OC[C@H](C[C@@H]2O[C@H]2[C@@H](C)[C@H](C)O)[C@@H](O)[C@H]1O [Example 33, 5-Methyl-3-(1-normon-2-yl) isoxazole A]",MIC,M. pneumoniae ATCC 15492; [9],10 µg/mL
same,MIC,Strep. agalactiae SPA1; [10],10 µg/mL
same,MIC,"S. dublin S7; Salmonella enterica, S7, 18 h",> 80 µg/mL
same,MIC,[1]; [22],2.5 µg/mL
same,MIC,E. coli NCTC 10418 [2]; [12],> 80 µg/mL
same,MIC,E. coli ESS; [13],8 µg/mL
same,MIC,"[3]; Staphylococcus aureus, 18 h",2.5 µg/mL
same,MIC,"Staph. aureus Oxford [4]; Staphylococcus aureus, 18 h",2.5 µg/mL
same,MIC,Strep. uberis SPU1; [14],5 µg/mL
same,MIC,[5]; read-out: MIC,2 µg/mL
same,MIC,[6]; [15],8 µg/mL
same,MIC,E. coli NCTC 10418 [7]; [16],> 128 µg/mL
same,MIC,S. typhimurium S18; [17],> 80 µg/mL
same,MIC,M. suipneumoniae JF 435; [23],2.5 µg/mL
same,MIC,Staph. aureus Oxford [8]; [19],8 µg/mL
same,MIC,Strep. spp. 64/848-C; read-out: MIC,32 µg/mL
same,MIC,M. suipneumoniae Str. 11; [20],1 µg/mL
same,MIC,M. gallisepticum S6; [21],> 10 µg/mL
same,MIC,"E. coli E1; Escherichia coli, E1, 18 h",> 80 µg/mL
same,MIC,Bacillus subtilis 6633; read-out: MIC,1 µg/mL
same,MIC,M. dispar NCTC 10125; [24],0.5 µg/mL
"C/C(=C\c1cc(-c2ccccc2)on1)C[C@@H]1OC[C@H](C[C@@H]2O[C@H]2[C@@H](C)[C@H](C)O)[C@@H](O)[C@H]1O [Example 34, 3-(1-Normon-2-yl)-5-phenylisoxazole A]",MIC,M. pneumoniae ATCC 15492; [9],5 µg/mL
same,MIC,Strep. agalactiae SPA1; [10],40 µg/mL
same,MIC,"S. dublin S7; Salmonella enterica, S7, 18 h",> 80 µg/mL
same,MIC,[1]; [22],2.5 µg/mL
same,MIC,E. coli NCTC 10418 [2]; [12],> 80 µg/mL
same,MIC,E. coli ESS; [13],16 µg/mL
same,MIC,"[3]; Staphylococcus aureus, 18 h",2.5 µg/mL
same,MIC,"Staph. aureus Oxford [4]; Staphylococcus aureus, 18 h",5 µg/mL
same,MIC,Strep. uberis SPU1; [14],5 µg/mL
same,MIC,[5]; read-out: MIC,64 µg/mL
same,MIC,[6]; [15],8 µg/mL
same,MIC,E. coli NCTC 10418 [7]; [16],> 128 µg/mL
same,MIC,S. typhimurium S18; [17],> 80 µg/mL
same,MIC,M. suipneumoniae JF 435; [23],2.5 µg/mL
same,MIC,Staph. aureus Oxford [8]; [19],8 µg/mL
same,MIC,Strep. spp. 64/848-C; read-out: MIC,64 µg/mL
same,MIC,M. suipneumoniae Str. 11; [20],1 µg/mL
same,MIC,M. gallisepticum S6; [21],> 10 µg/mL
same,MIC,"E. coli E1; Escherichia coli, E1, 18 h",> 80 µg/mL
same,MIC,Bacillus subtilis 6633; read-out: MIC,4 µg/mL
same,MIC,M. dispar NCTC 10125; [24],0.5 µg/mL
